O=[N+]([O-])c1cc[n+]([O-])c2ccc(Cl)cc12
logP: 1.41

O=C(/C=C/c1ccccc1)c1ccccc1
logP: 3.08

CCCC
logP: 2.89

O=C(NC(O)Cc1ccc([N+](=O)[O-])cc1)C(F)(F)F (configuration not stated)
logP: 1.46

c1ccc2nccnc2c1
logP: 1.32

Nc1nc2[nH]nnc2c(=O)[nH]1
logP: -0.71

CF
logP: 0.51

CSc1nnc(C(C)C)c(=O)n1N
logP: 1.01

CNc1ccc([N+](=O)[O-])cc1
logP: 2.04

CCCN(CC)CCC
logP: 2.68

CCC1(CC)C(=O)NC(=S)NC1=O
logP: 1.5

O=[N+]([O-])c1cccc2ccccc12
logP: 3.19

CO
logP: -0.77

Brc1ccc2ncccc2c1
logP: 2.83

CN(c1ccccc1)c1ccccc1
logP: 3.9

Oc1c(Br)cc(Br)cc1Br
logP: 4.13

CCCc1ccc(S(N)(=O)=O)cc1
logP: 1.64

CNC(=O)Oc1ccccc1OC(C)C
logP: 1.52

c1ccc(-c2cccc(-c3ccccc3)n2)cc1
logP: 4.82

Oc1ccnc(S)n1
logP: -0.28

C[C@]12CCC(=O)C=C1CC[C@@H]1[C@@H]2C(=O)C[C@@]2(C)[C@H]1CC[C@]2(O)C(=O)CO
logP: 1.47

FC(F)(F)c1ccccc1
logP: 3.01

N#Cc1cccs1
logP: 1.27

Cc1ccnc(NS(=O)(=O)c2ccc(N)cc2)n1
logP: 0.14

COC(=O)C(C#N)=NNc1ccc(Cl)cc1C
logP: 4.3

ClC(Cl)(Cl)Cl
logP: 2.83

C=CCOc1ccc(CC(=O)O)cc1Cl
logP: 2.48

CCN(CC)c1ccccc1
logP: 3.31

OC1CCCCC1
logP: 1.23

Nc1ncnc2c1ncn2[C@@H]1O[C@H](CO)C[C@H]1O
logP: -0.61

CCCCCOC(N)=O
logP: 1.35

C=CCNCCC
logP: 1.33

O=C1O[C@H]([C@@H](O)CO)C(O)=C1O
logP: -1.85

CC(=O)CC(C)=O
logP: 0.4

C#C[C@]1(O)CC[C@H]2[C@@H]3CCc4cc(O)ccc4[C@H]3CC[C@@]21C
logP: 3.67

O=C1NS(=O)(=O)c2ccccc21
logP: 0.91

COc1cc(CCN)cc(OC)c1Br
logP: 2.03

O=C1C=CC(=O)C=C1
logP: 0.2

O=C1CCCO1
logP: -0.64

Nc1ccccc1[N+](=O)[O-]
logP: 1.85

CN1CC[C@]23c4c5ccc(O)c4O[C@H]2C(=O)CC[C@@]3(O)[C@H]1C5
logP: 0.83

CCCCCCCC(C)=O
logP: 3.14

NC(=O)Cc1cccnc1
logP: -0.71

COc1ccccc1C(N)=O
logP: 0.86

CCCCOC(=O)c1ccc(O)cc1
logP: 3.57

CCOC(=O)C(C#N)=NNc1cc(Cl)c(Cl)c(Cl)c1
logP: 5.03

O=CO
logP: -0.54

CCCC(C)C1(CC)C(=O)NC(=O)NC1=O (configuration not stated)
logP: 2.1

N#Cc1ccc(S(N)(=O)=O)cc1
logP: 0.23

COc1ccc(NS(=O)(=O)c2ccc(N)cc2)cc1
logP: 1.51

CCCCCBr
logP: 3.37

N#Cc1ccc(OCC(=O)O)cc1
logP: 0.93

COC(=O)C(C#N)=NNc1cccc(Cl)c1
logP: 3.6

O=C(O)c1ccccc1Nc1cccc(C(F)(F)F)c1
logP: 5.25

C[N+]1([O-])C2CCC1CC(OC(=O)C(CO)c1ccccc1)C2 (configuration not stated)
logP: 0.98

CCOc1ccc([N+](=O)[O-])cc1
logP: 2.53

CCOc1cccc(O)c1
logP: 1.98

CC(C)[N+](=O)[O-]
logP: 0.93

C1CCOC1
logP: 0.46

Brc1cccnc1
logP: 1.6

CCc1ccc(O)cc1
logP: 2.58

CCOC(=O)C(C#N)=NNc1ccc(Cl)c(Cl)c1
logP: 4.66

NC(N)=O
logP: -2.11

CSc1ccccc1
logP: 2.74

CCn1cc(C(=O)O)c(=O)c2ccc(C)nc21
logP: 1.59

c1ccc(Cc2ccccc2)cc1
logP: 4.14

CNC(=O)Oc1cccc(C#N)c1
logP: 0.97

CN(C)CCC(c1ccc(Cl)cc1)c1ccccn1 (configuration not stated)
logP: 3.38

O=C(O)c1ccc(O)cc1
logP: 1.58

c1ccc2occc2c1
logP: 2.67

CSc1nnc(C)c(=O)n1N
logP: -0.16

Cc1ccccc1OCC(=O)O
logP: 1.98

From the SangsterLogP compilation
